Reference: patent publication US7371748B2, “Benzothiazole derivatives” (Hoffman-La Roche Inc., priority 2003, dated 2008)
Where two headings read alike, the source gives them in different places.

Assays:
[1] = biological target: T1, human adenosine A2A receptor (Homo sapiens, UniProt P29274); experiment: [3H]-SCH-58261 binding assay, human adenosine A2A receptor; conditions: human A2A receptor recombinantly expressed in CHO cell membranes, [3H]-SCH-58261 1 nM, Ki from IC50 by Cheng-Prussoff equation
T1 construct: expressed in transfected cells; host or cells: CHO cells, Semliki Forest virus expression system; membrane preparation
Procedure: Human Adenosine A2A Receptor
The human adenosine A2A receptor was recombinantly expressed in chinese hamster ovary (CHO) cells using the semliki forest virus expression system. Cells were harvested, washed twice by centrifugation, homogenized and again washed by centrifugation. The final washed membrane pellet was suspended in a Tris (50 mM) buffer containing 120 mM NaCl, 5 mM KCl, 2 mM CaCl2 and 10 mM MgCl2 (pH 7.4) (buffer A). The [^3H]-SCH-58261 (Dionisotti et al., […], Br J Pharmacol 121, 353; 1 nM) binding assay was carried out in 96-well plates in the presence of 2.5 μg of membrane protein, 0.5 mg of Ysi-poly-1-lysine SPA beads and 0.1 U adenosine deaminase in a final volume of 200 μl of buffer A. Non-specific binding was defined using xanthine amine congener (XAC; 2 μM). Compounds were tested at 10 concentrations from 10 μM-0.3 nM. All assays were conducted in duplicate and repeated at least two times. Assay plates were incubated for 1 hour at room temperature before centrifugation and then bound ligand determined using a Packard Topcount scintillation counter. IC50 values were calculated using a non-linear curve fitting program and Ki values calculated using the Cheng-Prussoff equation.

[2] = read-out: Ha2 (pKi) (converted)

T1 sequence (P29274 whole entry): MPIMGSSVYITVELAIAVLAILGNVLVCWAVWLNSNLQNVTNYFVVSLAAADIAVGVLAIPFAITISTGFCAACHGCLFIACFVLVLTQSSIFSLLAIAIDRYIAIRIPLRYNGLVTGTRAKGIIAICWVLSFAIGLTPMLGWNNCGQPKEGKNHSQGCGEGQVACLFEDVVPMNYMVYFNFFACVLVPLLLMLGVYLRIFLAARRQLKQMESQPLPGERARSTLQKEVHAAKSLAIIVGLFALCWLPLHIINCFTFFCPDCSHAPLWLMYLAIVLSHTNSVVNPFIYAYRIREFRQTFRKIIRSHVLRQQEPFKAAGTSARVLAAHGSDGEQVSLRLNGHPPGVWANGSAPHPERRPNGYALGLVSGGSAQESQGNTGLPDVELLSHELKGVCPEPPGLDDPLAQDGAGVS

SMILES	melting point [°C]	Ki [1, 2] [nM]	Ki ([1]; Ha2 (pKi)) [nM]
COc1ccc(C2CCOCC2)c2sc(NC(=O)N(C)C3CC4CCC3O4)nc12 (racemic) [Example 26, (rac)-(exo)-3-[4-Methoxy-7-(tetrahydro-pyran-4-yl)-benzothiazol-2-yl]-1-methyl-1-(7-oxa-bicyclo[2.2.1]hept-2-yl)-urea]	197 to 200	1	
COc1ccc(C2CCOCC2)c2sc(NC(=O)N(C)C3CC4CCC3O4)nc12 (single isomer, unassigned) [Example 55, (exo)-(+)-3-[4-Methoxy-7-(tetrahydro-pyran-4-yl)-benzothiazol-2-yl]-1-methyl-1-(7-oxa-bicyclo[2.2.1]hept-2-yl)-urea]	185 to 188	1.26	
COc1ccc(C2CCOCC2)c2sc(NC(=O)N(C)C3CC4CCC3O4)nc12 (single isomer, unassigned) [Example 56, (exo)-(−)-3-[4-Methoxy-7-(tetrahydro-pyran-4-yl]-benzothiazol-2-yl)-1-methyl-1-(7-oxa-bicyclo[2.2.1]hept-2-yl)-urea]	155 to 190	3.16	
COc1ccc(C2COCCOC2)c2sc(NC(=O)c3ccc(C)s3)nc12 [Example 8, 5-Methyl-thiophene-2-carboxylic acid (7-[1,4]dioxepan-6-yl-4-methoxy-benzothiazol-2-yl)-amide]		1	
COc1ccc(C(=O)Nc2nc3c(OC)ccc(C4COCCOC4)c3s2)cc1 [Example 9, N-(7-[1,4]Dioxepan-6-yl-4-methoxy-benzothiazol-2-yl)-4-methoxy-benzamide]		2	
COc1ccc(C2COCCOC2)c2sc(NC(=O)c3ccc(F)cc3)nc12 [Example 10, N-(7-[1,4]Dioxepan-6-yl-4-methoxy-benzothiazol-2-yl)-4-fluoro-benzamide]		1.26	
COc1ccc(C2COCCOC2)c2sc(NC(=O)C3CCCCC3)nc12 [Example 11, Cydohexanecarboxylic acid (7-[1,4]dioxepan-6-yl-4-methoxy-benzothiazol-2-yl)-amide]		2.51	
COc1ccc(C2COCCOC2)c2sc(NC(=O)c3cncn3C)nc12 [Example 14, 3-Methyl-3H-imidazole-4-carboxylic acid (7-[1,4]dioxepan-6-yl-4-methoxy-benzothiazol-2-yl)-amide]		1	
COc1ccc(C2COCCOC2)c2sc(NC(=O)c3ccncc3)nc12 [Example 15, N-(7-[1,4]Dioxepan-6-yl-4-methoxy-benzothiazol-2-yl)-isonicotinamide]		2	
COc1ccc(C2CCOCC2)c2sc(NC(=O)N(C)C3CCN(C)CC3)nc12 [Example 20, 3-[4-Methoxy-7-(tetrahydro-pyran-4-yl)-benzothiazol-2-yl]-1-methyl-1-(1-methyl-piperidin-4-yl)-urea]	152 to 155	2.51	
COc1ccc(C2CCOCC2)c2sc(NC(=O)N(C)[C@H]3CC[C@H](O)CC3)nc12 [Example 21, trans-1-(4-Hydroxy-cyclohexyl)-3-[4-methoxy-7-(tetrahydro-pyran-4-yl)-benzothiazol-2-yl]-1-methyl-urea]	160	2.51	
COc1ccc(C2CCOCC2)c2sc(NC(=O)N(C)[C@H]3CC[C@@H](O)CC3)nc12 [Example 22, cis-1-(4-Hydroxy-cyclohexyl)-3-[4-methoxy-7-(tetrahydro-pyran-4-yl)-benzothiazol-2-yl]-1-methyl-urea]	191 to 193	2.51	
COc1ccc(C2CCOCC2)c2sc(NC(=O)N(C)[C@H]3CC[C@@](C)(O)CC3)nc12 [Example 23, 1-(4-cis-Hydroxy-4-methyl-cyclohexyl)-3-[4-methoxy-7-(tetrahydro-pyran-4-yl)-benzothiazol-2-yl]-1-methyl-urea]	211 to 213	2	
COc1ccc(C2CCOCC2)c2sc(NC(=O)N(C)C3CCOCC3)nc12 [Example 24, 3-[4-Methoxy-7-(tetrahydro-pyran-4-yl)-benzothiazol-2-yl]-1-methyl-1-(tetrahydro-pyran-4-yl)-urea]	237 to 238	3.16	
COc1ccc(C2CCOCC2)c2sc(NC(=O)N(C)CC3CCOC3)nc12 (stereo not drawn) [Example 25, 3-[4-Methoxy-7-(tetrahydro-pyran-4-yl)-benzothiazol-2-yl]-1-methyl-1-(tetrahydro-furan-3-ylmethyl)-urea]	185 to 186		
COc1ccc(C2CCOCC2)c2sc(NC(=O)N3CCC4(CC3)OCCO4)nc12 [Example 29, 1,4-Dioxa-8-aza-spiro[4.5]decane-8-carboxylic acid [4-methoxy-7-(tetrahydro-pyran-4-yl)-benzothiazol-2-yl]-amide]			1.58

SMILES	melting point [°C]	Ki [1, 2] [nM]	Ki ([1]; Ha2 (pKi)) [nM]
COc1ccc(C2CCOCC2)c2sc(NC(=O)N3CCC(C)(O)CC3)nc12 [Example 30, 4-Hydroxy-4-methyl-piperidine-1-carboxylic acid [4-methoxy-7-(tetrahydro-pyran-4-yl)-benzothiazol-2-yl]-amide]	90 to 95	1.26	
COc1ccc(C2CCOCC2)c2sc(NC(=O)N3C[C@@H]4C[C@H]3CO4)nc12 [Example 31, (1S,4S)-2-Oxa-5-aza-bicyclo[2.2.1]heptane-5-carboxylic acid [4-methoxy-7-(tetrahydro-pyran-4-yl)-benzothiazol-2-yl]-amide]	193 to 197	1.26	
COc1ccc(C2CCOCC2)c2sc(NC(=O)N3CC4CCC3CC4)nc12 [Example 32, 2-Aza-bicyclo[2.2.2]octane-2-carboxylic acid [4-methoxy-7-(tetrahydro-pyran-4-yl)-benzothiazol-2-yl]-amide]	237 to 239	2	
COc1ccc(C2CCOCC2)c2sc(NC(=O)CC3CCOCC3)nc12 [Example 33, N-[4-Methoxy-7-(tetrahydro-pyran-4-yl)-benzothiazol-2-yl]-2-(tetrahydro-pyran-4-yl)-acetamide]	218 to 220	1.58	
COc1ccc(C2CCOCC2)c2sc(NC(=O)c3ccnc(CN4CCOCC4)c3)nc12 [Example 34, N-[4-Methoxy-7-(tetrahydro-pyran-4-yl)-benzothiazol-2-yl]-2-morpholin-4-ylmethyl-isonicotinamide]	199 to 201	2	
COCCNCc1cc(C(=O)Nc2nc3c(OC)ccc(C4CCOCC4)c3s2)ccn1 [Example 35, 2-[(2-Methoxy-ethylamino)-methyl]-N-[4-methoxy-7-(tetrahydro-pyran-4-yl)-benzothiazol-2-yl]-isonicotinamide]	93 to 95	1.58	
COc1ccc(C2COCCOC2)c2sc(NC(=O)c3ccc(CCl)cc3)nc12 [Example 39, 4-Chloromethyl-N-(7-[1,4]dioxepan-6-yl-4-methoxy-benzothiazol-2-yl)-benzamide]		1.58	
COc1ccc(C2COCCOC2)c2sc(NC(=O)c3cnn(C)c3)nc12 [Example 43, 1-Methyl-1H-pyrazole-4-carboxylic acid (7-[1,4]dioxepan-6-yl-4-methoxy-benzothiazol-2-yl)-amide]		0.398	
CCC(=O)N(C)Cc1ccc(C(=O)Nc2nc3c(OC)ccc(C4COCCOC4)c3s2)cc1 [Example 44, N-(7-[1,4]Dioxepan-6-yl-4-methoxy-benzothiazol-2-yl)-4-[(methyl-propionyl-amino)-methyl]-benzamide]		2.51	
COc1ccc(C2COCCOC2)c2sc(NC(=O)c3ccnc(N4CCCC4)c3)nc12 [Example 46, N-(7-[1,4]Dioxepan-6-yl-4-methoxy-benzothiazol-2-yl)-2-pyrrolidin-1-yl-isonicotinamide]		2.51	
COc1ccc(C2COCCOC2)c2sc(NC(=O)c3ccnc(CN4CCCC4)c3)nc12 [Example 47, N-(7-[1,4]Dioxepan-6-yl-4-methoxy-benzothiazol-2-yl)-2-pyrrolidin-1-ylmethyl-isonicotinamide]	108 to 111		
COCCN(C)Cc1cc(C(=O)Nc2nc3c(OC)ccc(C4COCCOC4)c3s2)ccn1 [Example 48, N-(7-[1,4]Dioxepan-6-yl-4-methoxy-benzothiazol-2-yl)-2-{[(2-methoxy-ethyl)-methyl-amino]-methyl}-isonicotinamide]	100 to 107		
COc1ccc(C2CCOCC2)c2sc(NC(=O)[C@H]3CCCO3)nc12 [Example 51, (R)-Tetrahydro-furan-2-carboxylic acid [4-methoxy-7-(tetrahydro-pyran-4-yl)-benzothiazol-2-yl]-amide]	158 to 161		
COc1ccc(C2CCOCC2)c2sc(NC(=O)N(C)C3CCN(N(C)C)CC3)nc12 [Example 53, 1-(1-Dimethylamino-piperidin-4-yl)-3-[4-methoxy-7-(tetrahydro-pyran-4-yl)-benzothiazol-2-yl]-1-methyl-urea]	167 to 170		
COc1ccc(C2CCOCC2)c2sc(NC(=O)CC3CCCO3)nc12 (stereo not drawn) [Example 54, N-[4-Methoxy-7-(tetrahydro-pyran-4-yl)-benzothiazol-2-yl]-2-(tetrahydro-furan-2-yl)-acetamide]	170 to 174		
